Data from patent US20210161837A1, “METHODS FOR TREATING CANCER WITH RORGAMMA INHIBITORS” (The Regents of the University of California, priority 2016, published 2021).

Tests used:
[1] = tested on: TNBC cells including MDA-MB468, MDA-MB231, BT20, SUM149 and HCC1937; assay: Cell viability (CellTiter-GLO), 4 days, TNBC cells; type: cell-based; conditions: Homo sapiens, 96 h
Procedure: (§1) For cell viability, cells were seeded in 96-well plates at 1500-2500 cells per well (optimum density for growth, depending on the specific cell line) in a total volume of 100 μl media. Serially diluted compounds in 100 μl of media were added to the cells 12 hours later. After 4 days of incubation, Cell-Titer GLO reagents (Promega) were added and luminescence was measured on GLOMAX microplate luminometer (Promega), according to the manufacturer's instructions. All experimental points were set up as sextuplicate as biological replication and the entire experiments were repeated three times. The data are presented as percentage of viable cells with vehicle treated cells set as 100. The estimated in vitro IC50 values were calculated using GraphPad Prism 6 software.

C4-2B xenografts = assay: C4-2B xenograft tumor growth; type: in vivo, mouse; conditions: 20 mg/kg, i.p., 5 times a week, 21-24 days
[2] = tested on: prostate cancer C4-2B cells; assay: Cell viability (Cell-Titer GLO), 4 days, prostate cancer cells; type: cell-based, human
Procedure: The “No.” label for each compound corresponds to the “Structure No.” in Table 2 (e.g., “No. 36”=“Structure No. 36” in Table 2). Experiments were independently performed three times.
as §1

MCF-7-C6 = assay: Growth and survival of radiation-resistant breast cancer cells; type: cell-based, human; conditions: radiation-resistant MCF-7-C6
[3] = tested on: OVCAR420, T24, ECC1, T98G, SUDHL4, SUDHL6, HCT116 and docetaxel-resistant C4-2B cells; assay: Cell viability (CellTiter-GLO), 4 days, further cancer types; type: cell-based; conditions: Homo sapiens, 96 h, ovarian, bladder, endometrial, glioblastoma, DLBCL, colon
MCF-7 = assay: Cell viability (CellTiter-GLO), 4 days, ER-positive cells; type: cell-based; conditions: Homo sapiens, MCF7, 96 h; ER-positive MCF-7, 4 days
Procedure: as §1

T47D = assay: as above; type: cell-based; conditions: Homo sapiens, 96 h
Procedure: as §1

22Rv1 xenografts = assay: 22Rv1 xenograft tumor growth; type: in vivo, mouse; conditions: 5 mg/kg, i.p., 5 times a week, 21-24 days
AR and AR-V7 expression = assay: Immunoblotting and qRT-PCR of AR and AR-V7 expression in C4-2B and VCaP cells; type: cell-based, human
Procedure: Data shown are mean±s.d. Significance was calculated using Student's t-test. *p<0.05, **p<0.01.
(§2) Total RNA was isolated from cells in 6-well or 10-cm plates or from xenograft tumors, and the cDNA was prepared, amplified and measured in the presence of SYBR as described in Yang, P., et al., Molecular and cellular biology 32, 3121-3131 (2012). Briefly, the fluorescent values were collected and a melting curve analysis was performed. Fold difference was calculated as described previously Yang, P., et al. (see, id). The experiments were performed at least three times with data presented as mean values±s.d. Cell lysates were analyzed by immunoblotting with antibodies specifically recognizing RORγ, AR, AR-V7 and the indicated proteins.

22Rv1 cells = assay: Cell survival: colony formation and apoptosis (caspase-3/7, TUNEL); type: cell-based, human
Procedure: (§3) Data shown are mean percentage of apoptotic cells±s.d. […] Data shown are mean±s.d. Significance was calculated using Student's t-test. *p<0.05, **p<0.01.
(§4) (a&b) C4-2B and 22Rv1 cell proliferation after the RORγ antagonist treatment. Cells were seeded in 6-well plates and counted after cells were treated with indicated concentrations of RORγ antagonists for 0, 2, 4 and 6 days by Coulter counter. […] (e) representative images of TUNEL positive cells treated with vehicle or the antagonist (5 μM) in 22Rv1 cells are shown. […] Three days later, cells were harvested for immunoblotting with indicated antibodies.
(§5) LNCaP, C4-2B, 22Rv, PC-3, and PC346C prostate cancer cells were cultured in RPMI1640, VCaP, HEK293T and human fibroblast IMR90 cells were in DMEM, LAPC-4 was in Iscove's MEM (all from Corning), and RWPE-1 and PZ-HPV-7 were in Keratinocyte Serum Free Medium (K-SFM) (Invitrogen) with the supplements. All the culture media except for RWPE-1 and PZ-HPV-7 were supplemented with 10% FBS (Hyclone) except indicated otherwise. For experiments, C4-2B cells were cultured in RPMI supplemented with 9% cds-FBS plus 1% regular FBS (to mimic the CRPC condition) unless indicated otherwise and 22Rv1 cells were cultured in RPMI supplemented with 10% cds-FBS. Cells were grown at 37° C. in 5% CO2 incubators. LNCaP, VCaP, 22Rv1, PC-3, 293T, IMR90, PZ-HPV-7 and RWPE-1 were from ATCC. […]

C4-2B cells = assay: as above; type: cell-based, human
Procedure: as §3, §4, §5

AR expression = assay: Immunoblotting of AR expression in 22Rv1, LAPC4 and PC346C cells; type: cell-based, human; conditions: 22Rv1, LAPC4, PC346C cells, 72 hours
Procedure: as §2

[4] = tested on: endogenous AR expression in RWPE1 and PZ-HPV7 cells; assay: Immunoblotting of AR expression in non-malignant prostate epithelial cells; type: cell-based, human
Procedure: Immunoblotting analysis of RORγ and AR expression in non-malignant, human prostate epithelial RWPE1 and PZ-HPV7 cells within indicated treatments is shown.
as §2

[5] = tested on: lung cancer cells (A427, Calu1, A549, H23, H358, H1666, HCC827, PC-9, H69, H209); assay: Cell viability (CellTiter-GLO), 4 days, lung cancer cells; type: cell-based; conditions: Homo sapiens, 96 h, NSCLC and SCLC lung cancer cells
Text: All those cells are derived from human tumors of non-small cell lung carcinoma (NSCLC).

[6] = tested on: AR-positive PCa cell models including 22Rv1, VCaP, LNCaP, LAPC4 and PC346C; assay: Growth inhibition in other AR-positive PCa cell models; type: cell-based, human
Procedure: as §4
as §5, with “ATCC. C4-2B was from UroCor Inc. (Oklahoma City, Okla.).” for “ATCC.”

[7] = tested on: key proliferation and survival proteins, including Myc; assay: Immunoblotting of key proliferation and survival proteins; type: cell-based, human; conditions: 3 days
Procedure: as §3, §4, §2

With `O=C(Cc1ccccc1[N+](=O)[O-])Nc1ccc(-c2ccc(C(O)(C(F)(F)F)C(F)(F)F)cc2F)cc1` [XY018, N-(2′-fluoro-4′-(1,1,1,3,3,3-hexafluoro-2-hydroxypropan-2-yl)-[1,1′-biphenyl]-4-yl)-2-(2-nitrophenyl)acetamide] the IC50 [1] was 0.5 to 3 µM, the tumor growth inhibition (C4-2B xenografts) was “strong tumor growth inhibition” and the “inhibition of growth and survival” value [2] was “strongly inhibited the growth and survival”. For the same compound, the “inhibition of growth and survival” value (MCF-7-C6) was “potently inhibiting the growth and survival”, the IC50 [3] was < 3.5 µM and the IC50 (MCF-7) was ~9 µM. The IC50 (T47D) was ~9 µM, the tumor growth inhibition (22Rv1 xenografts) was “strong tumor growth inhibition” and the “AR and AR-V7 expression” value (AR and AR-V7 expression) was “inhibited by XY018 in dose-dependent manner”. For the same compound, the “inhibition of cell survival (colony formation, apoptosis)” value (22Rv1 cells) was “pronounced inhibition of cell survival”, the “inhibition of cell survival (colony formation, apoptosis)” value (C4-2B cells) was “pronounced inhibition of cell survival” and the AR expression (AR expression) was “potent does dependent XY018 inhibition of AR expression”. The “effect on endogenous AR expression in non-malignant cells” value [4] was “did not have any significant effect”, the IC50 [5] was 3.3 to 9 µM and the growth inhibition [6] was “strong growth inhibition”. The “expression of key proliferation and survival proteins, including Myc” value [7] was “strongly inhibited the expression”.
